Reference: ChEMBL document CHEMBL3045437, “Synthesis of potential anticancer derivatives of pyrido[1,2-a]benzimidazoles” (Med Chem Res, 2012)
Converted amounts (≈) assume the structure as drawn.

Test system: MCF7
Experiment: Cytotoxicity against Homo sapiens (human) MCF7 cells after 48 hr by SRB assay
Format: functional, cell-based
Conditions: MCF7, 48 h

| Structure (SMILES) | IC50 [µg/mL] |
| --- | --- |
| Cc1c(CCCl)c(Cl)n2c(nc3ccc(C(=O)O)cc32)c1C#N | 9.07 (≈ 26 µM) |
| N#Cc1c(-c2ccccc2)cc(=O)n2c1[nH]c1ccc(Cl)cc12 | 3.58 (≈ 11.2 µM) |
| N#Cc1c(-c2ccccc2)cc(N2CCN(c3ccccc3F)CC2)n2c1nc1ccc(C(=O)O)cc12 | 17.6 (≈ 35.9 µM) |
| Cc1c(CCN2CCN(c3ccccc3F)CC2)c(N2CCN(c3ccccc3F)CC2)n2c(nc3ccc(C(=O)O)cc32)c1C#N | 9.9 (≈ 15.6 µM) |
| Cc1cc(N2CCN(c3ccccc3F)CC2)n2c(nc3ccc(Cl)cc32)c1C#N | 5.72 (≈ 13.6 µM) |
| Cc1cc(Cl)n2c(nc3ccc(C(=O)O)cc32)c1C#N | 12.8 (≈ 44.9 µM) |
| N#Cc1c(-c2ccccc2)cc(Cl)n2c1nc1ccc(C(=O)O)cc12 | 3.58 (≈ 10.3 µM) |
| N#Cc1c(-c2ccccc2)cc(N2CCN(c3ccccc3F)CC2)n2c1nc1ccc(Cl)cc12 | 10.4 (≈ 21.6 µM) |
| N#Cc1c(-c2ccccc2)cc(=O)n2c1[nH]c1ccc(C(=O)O)cc12 | 3.99 (≈ 12.1 µM) |
| Cc1cc(Cl)n2c(nc3ccc(Cl)cc32)c1C#N | 8.61 (≈ 31.2 µM) |
| Cc1cc(N2CCN(c3ccccc3F)CC2)n2c(nc3ccc(C(=O)O)cc32)c1C#N | 12.6 (≈ 29.3 µM) |
| Cc1c(CCO)c(=O)n2c([nH]c3ccc(Cl)cc32)c1C#N | 14.6 (≈ 48.5 µM) |
| Cc1cc(=O)n2c([nH]c3ccc(C(=O)O)cc32)c1C#N | 14.7 (≈ 55 µM) |
| Cc1c(CCN2CCN(c3ccccc3F)CC2)c(N2CCN(c3ccccc3F)CC2)n2c(nc3ccc(Cl)cc32)c1C#N | 14 (≈ 22.4 µM) |
| N#Cc1c(-c2ccccc2)cc(Cl)n2c1nc1ccc(Cl)cc12 | 3.89 (≈ 11.5 µM) |
| Cc1c(CCCl)c(Cl)n2c(nc3ccc(Cl)cc32)c1C#N | 7.09 (≈ 20.9 µM) |
| Cc1c(CCO)c(=O)n2c([nH]c3ccc(C(=O)O)cc32)c1C#N | 10.5 (≈ 33.9 µM) |
| Cc1cc(=O)n2c([nH]c3ccc(Cl)cc32)c1C#N | 3.43 (≈ 13.3 µM) |
